Laboratory results taken from paper PMC6987092, “Characterization and diversity of the complete set of GH family 3 enzymes from Rhodothermus marinus DSM 4253” (Scientific Reports, 2020).

Columns and labels:
Assay in all cases: pNP release at […] nm
Format in all cases: biochemical
Settings in all cases: 20 mM citrate phosphate pH 5.6, 60 °C
[1] = target: T1, RmBgl3B (Rhodothermus marinus, UniProt D0MD38)
T1 construct: gene Rmar_2069; recombinant in E. coli BL21 C43 (pET-21b(+)), signal peptide removed, C-terminal His-tag; locus tag is that of the type strain DSM 4252T homolog, gene cloned from DSM 4253
T1 sequence (D0MD38 21-839): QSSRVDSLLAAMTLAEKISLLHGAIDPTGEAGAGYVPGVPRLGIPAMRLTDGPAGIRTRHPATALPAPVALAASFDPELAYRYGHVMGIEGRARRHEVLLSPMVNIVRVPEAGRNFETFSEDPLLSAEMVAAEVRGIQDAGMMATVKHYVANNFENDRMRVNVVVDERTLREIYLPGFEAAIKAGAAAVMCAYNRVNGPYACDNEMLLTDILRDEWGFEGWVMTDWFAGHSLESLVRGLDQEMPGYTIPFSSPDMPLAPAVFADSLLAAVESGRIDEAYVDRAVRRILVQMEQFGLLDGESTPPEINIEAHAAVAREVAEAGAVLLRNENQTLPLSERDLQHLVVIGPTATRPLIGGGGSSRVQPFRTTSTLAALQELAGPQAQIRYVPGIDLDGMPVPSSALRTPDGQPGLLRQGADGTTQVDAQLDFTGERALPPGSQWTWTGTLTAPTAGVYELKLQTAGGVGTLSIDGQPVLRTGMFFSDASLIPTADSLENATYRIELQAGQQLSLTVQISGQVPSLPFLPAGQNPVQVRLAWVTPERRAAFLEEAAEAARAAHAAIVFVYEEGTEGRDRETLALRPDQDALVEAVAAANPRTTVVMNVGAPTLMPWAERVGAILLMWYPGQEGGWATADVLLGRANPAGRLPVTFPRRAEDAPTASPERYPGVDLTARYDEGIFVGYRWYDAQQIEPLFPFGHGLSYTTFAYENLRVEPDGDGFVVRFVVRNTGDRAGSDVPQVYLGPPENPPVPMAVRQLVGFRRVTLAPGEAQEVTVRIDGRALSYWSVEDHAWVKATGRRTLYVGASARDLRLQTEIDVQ

[2] = target: T2, RmXyl3B (Rhodothermus marinus, UniProt D0MHL5)
T2 construct: gene Rmar_1081; locus tag is that of the type strain DSM 4252T homolog, gene cloned from DSM 4253
T2 sequence (D0MHL5 entry or part of it): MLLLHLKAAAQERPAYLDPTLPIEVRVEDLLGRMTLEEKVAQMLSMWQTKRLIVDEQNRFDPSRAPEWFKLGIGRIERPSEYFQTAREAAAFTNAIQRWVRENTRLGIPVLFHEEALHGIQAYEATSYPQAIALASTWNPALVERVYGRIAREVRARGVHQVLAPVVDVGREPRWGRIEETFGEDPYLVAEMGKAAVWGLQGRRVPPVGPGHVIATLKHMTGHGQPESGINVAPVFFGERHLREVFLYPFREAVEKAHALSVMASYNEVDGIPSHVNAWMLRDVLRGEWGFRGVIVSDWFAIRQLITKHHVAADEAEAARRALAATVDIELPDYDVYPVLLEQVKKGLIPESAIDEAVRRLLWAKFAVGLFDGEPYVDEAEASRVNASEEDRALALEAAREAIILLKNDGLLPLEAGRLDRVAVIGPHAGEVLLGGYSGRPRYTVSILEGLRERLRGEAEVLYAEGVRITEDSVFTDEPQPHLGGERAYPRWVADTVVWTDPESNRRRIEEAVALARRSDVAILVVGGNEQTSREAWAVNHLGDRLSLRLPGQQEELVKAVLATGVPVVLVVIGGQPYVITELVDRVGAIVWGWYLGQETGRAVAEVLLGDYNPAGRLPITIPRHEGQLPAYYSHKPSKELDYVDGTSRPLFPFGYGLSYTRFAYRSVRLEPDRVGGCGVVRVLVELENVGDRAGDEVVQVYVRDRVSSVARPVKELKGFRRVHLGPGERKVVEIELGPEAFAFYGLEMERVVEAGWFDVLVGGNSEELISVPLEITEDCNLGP

[3] = target: T3, RmXyl3A (Rhodothermus marinus, UniProt D0MHL4)
T3 construct: gene Rmar_1080; locus tag is that of the type strain DSM 4252T homolog, gene cloned from DSM 4253
T3 sequence (D0MHL4 19-792): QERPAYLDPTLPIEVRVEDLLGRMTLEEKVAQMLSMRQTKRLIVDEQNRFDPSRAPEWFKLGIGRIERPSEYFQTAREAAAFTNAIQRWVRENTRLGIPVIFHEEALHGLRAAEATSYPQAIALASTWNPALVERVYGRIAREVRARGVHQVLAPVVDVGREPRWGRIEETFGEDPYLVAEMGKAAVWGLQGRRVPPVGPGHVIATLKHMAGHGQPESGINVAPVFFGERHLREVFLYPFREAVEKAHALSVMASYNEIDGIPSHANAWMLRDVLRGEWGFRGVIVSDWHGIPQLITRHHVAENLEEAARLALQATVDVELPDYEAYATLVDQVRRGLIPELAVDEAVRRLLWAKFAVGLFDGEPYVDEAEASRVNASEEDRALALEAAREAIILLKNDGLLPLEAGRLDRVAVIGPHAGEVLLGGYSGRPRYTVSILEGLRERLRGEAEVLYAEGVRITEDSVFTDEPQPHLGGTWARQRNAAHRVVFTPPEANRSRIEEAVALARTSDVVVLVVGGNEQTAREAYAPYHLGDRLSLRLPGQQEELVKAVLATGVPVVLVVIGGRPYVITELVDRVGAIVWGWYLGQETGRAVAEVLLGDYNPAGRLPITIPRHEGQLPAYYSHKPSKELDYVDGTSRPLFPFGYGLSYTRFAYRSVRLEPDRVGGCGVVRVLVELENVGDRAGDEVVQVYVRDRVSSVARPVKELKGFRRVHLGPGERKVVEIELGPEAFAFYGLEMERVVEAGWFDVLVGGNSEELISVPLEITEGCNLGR

## pNP-α-L-Ara
[1]
  Km: 1.9 ± 0.1 mM
[2]
  Km: 2 ± 0.2 mM
[3]
  Km: 8.8 ± 1 mM
